The text below walks through data of paper PMC8434109, “Synthesis and Biological Activity of a Cytostatic Inhibitor of MLLr Leukemia Targeting the DOT1L Protein” (Molecules, 2021).

One data set addresses T1, PRMT4 (Homo sapiens, UniProt Q86X55).
T1 construct: purchased Reaction Biology
T1 sequence (Q86X55 1-608): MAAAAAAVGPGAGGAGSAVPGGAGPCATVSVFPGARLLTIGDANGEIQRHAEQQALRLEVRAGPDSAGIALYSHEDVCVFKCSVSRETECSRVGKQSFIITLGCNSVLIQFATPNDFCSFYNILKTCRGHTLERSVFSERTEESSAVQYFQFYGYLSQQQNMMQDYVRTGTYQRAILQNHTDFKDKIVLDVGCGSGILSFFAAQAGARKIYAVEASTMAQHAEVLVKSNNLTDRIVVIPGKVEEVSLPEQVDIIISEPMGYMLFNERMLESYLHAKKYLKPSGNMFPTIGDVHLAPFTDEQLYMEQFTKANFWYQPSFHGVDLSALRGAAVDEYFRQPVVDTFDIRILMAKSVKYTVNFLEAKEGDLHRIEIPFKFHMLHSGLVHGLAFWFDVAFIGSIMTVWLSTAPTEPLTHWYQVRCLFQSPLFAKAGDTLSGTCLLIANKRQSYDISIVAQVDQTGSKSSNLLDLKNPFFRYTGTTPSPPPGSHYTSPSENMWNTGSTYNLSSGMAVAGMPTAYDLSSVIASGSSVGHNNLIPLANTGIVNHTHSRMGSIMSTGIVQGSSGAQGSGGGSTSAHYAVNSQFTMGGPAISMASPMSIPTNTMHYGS
The data set can be described thus: HMT selectivity panel (Reaction Biology). The data set is classed as biochemical. Particulars: substrate Histone H3, read-out: Enzyme % Activity (relative to DMSO controls). The method, then:
(§1) Table S1: Selectivity of the compound on a HMT panel (by Reaction Biology, USA) and on hDNMT3Acat (as described in Ceccaldi
(§2) Enzyme % Activity (relative to DMSO
(§3) Testing Concentration 10µM
(§4) Methyltransferase: Substrate: Activity enzyme in %

The target of another data set is T2, SMYD2 (Homo sapiens, UniProt Q9NRG4).
T2 construct: purchased Reaction Biology
Description: HMT selectivity panel (Reaction Biology). The data set is classed as biochemical. The note with it: substrate Histone H4, read-out: Enzyme % Activity (relative to DMSO controls). As to the method:
as §1, §2, §3, §4

In another data set the target is T3, G9a (Homo sapiens, UniProt Q96KQ7).
T3 construct: purchased Reaction Biology
T3 sequence (Q96KQ7 1-1210): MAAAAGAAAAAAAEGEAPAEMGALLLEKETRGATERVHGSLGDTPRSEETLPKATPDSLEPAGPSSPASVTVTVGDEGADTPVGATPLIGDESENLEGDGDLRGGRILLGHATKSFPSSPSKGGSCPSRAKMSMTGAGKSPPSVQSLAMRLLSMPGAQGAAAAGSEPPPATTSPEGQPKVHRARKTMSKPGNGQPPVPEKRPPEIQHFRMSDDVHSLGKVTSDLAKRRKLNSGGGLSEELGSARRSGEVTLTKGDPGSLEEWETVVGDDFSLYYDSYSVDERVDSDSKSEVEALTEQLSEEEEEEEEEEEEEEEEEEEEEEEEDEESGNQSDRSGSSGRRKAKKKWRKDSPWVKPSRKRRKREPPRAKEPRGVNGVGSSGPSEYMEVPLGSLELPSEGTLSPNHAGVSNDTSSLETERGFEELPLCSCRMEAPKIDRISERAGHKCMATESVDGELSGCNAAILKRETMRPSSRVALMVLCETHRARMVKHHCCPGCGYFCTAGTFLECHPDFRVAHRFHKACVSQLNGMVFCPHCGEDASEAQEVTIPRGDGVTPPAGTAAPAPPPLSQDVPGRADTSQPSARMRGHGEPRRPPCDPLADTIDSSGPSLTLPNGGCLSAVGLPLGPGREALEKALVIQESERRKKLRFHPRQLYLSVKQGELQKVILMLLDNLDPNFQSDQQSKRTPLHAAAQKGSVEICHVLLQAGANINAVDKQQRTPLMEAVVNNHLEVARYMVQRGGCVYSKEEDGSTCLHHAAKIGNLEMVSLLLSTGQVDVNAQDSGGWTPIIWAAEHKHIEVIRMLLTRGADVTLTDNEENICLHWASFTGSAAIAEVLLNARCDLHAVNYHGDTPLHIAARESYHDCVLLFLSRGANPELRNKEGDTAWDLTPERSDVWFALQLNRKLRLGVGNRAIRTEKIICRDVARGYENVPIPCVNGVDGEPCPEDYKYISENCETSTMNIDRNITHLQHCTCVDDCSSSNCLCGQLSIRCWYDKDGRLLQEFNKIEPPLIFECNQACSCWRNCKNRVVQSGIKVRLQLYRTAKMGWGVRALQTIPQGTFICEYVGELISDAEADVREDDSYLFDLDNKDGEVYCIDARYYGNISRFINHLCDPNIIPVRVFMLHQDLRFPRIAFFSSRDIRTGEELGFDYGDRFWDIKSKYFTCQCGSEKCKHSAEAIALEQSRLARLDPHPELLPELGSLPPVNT
Description: HMT selectivity panel (Reaction Biology). It counts as biochemical. The note with it: substrate Histone H3 1-21, read-out: Enzyme % Activity (relative to DMSO controls). As to the method: as §1, §2, §3, §4

The target in another data set is T4, PRMT6 (Homo sapiens, UniProt Q96LA8).
T4 construct: purchased Reaction Biology
Description: HMT selectivity panel (Reaction Biology). It counts as biochemical. The note with it: substrate GST-GAR, read-out: Enzyme % Activity (relative to DMSO controls). As to the method: as §1, §2, §3, §4

The target of a further data set is T5, EZH2 Complex (Homo sapiens, UniProt Q15910).
T5 construct: purchased Reaction Biology
The data set can be described thus: HMT selectivity panel (Reaction Biology). The note with it: substrate Core Histone, read-out: Enzyme % Activity (relative to DMSO controls). The data set is classed as biochemical. As to the method: as §1, §2, §3, §4

The test system of another data set is NOMO-1 cells (MLL-AF9). Description: Cell proliferation, trypan blue counting. It counts as cell-based. Particulars: Homo sapiens, 360 h; NOMO-1 (AF9), 15-day treatment; read-out: EC50 of the proliferation inhibition. As to the method:
(§5) For assessment of cell proliferation and viability in human cell lines, exponentially growing cells were placed, in triplicate, in 96-well plates at a density of 35,000 cells/well at a final volume of 100 µL. […] The viable cell number was determined every 3–4 days for up to 15 days to 21 days using trypan blue counting using Cellometer Disposable Counting Chambers for the Cellometer Mini Automated Cell Counter.

In the next data set the test system is KOPN8 cells (MLL-ENL). The data set can be described thus: Cell proliferation, trypan blue counting. The data set is classed as cell-based. Particulars: Homo sapiens, KOPN-8, 360 h, 15-day treatment, read-out: EC50 of the proliferation inhibition. The method, then:
as §5

A further data set is described as follows: Microsomal stability. It counts as in vitro ADME.

T2 sequence (Q9NRG4 whole entry): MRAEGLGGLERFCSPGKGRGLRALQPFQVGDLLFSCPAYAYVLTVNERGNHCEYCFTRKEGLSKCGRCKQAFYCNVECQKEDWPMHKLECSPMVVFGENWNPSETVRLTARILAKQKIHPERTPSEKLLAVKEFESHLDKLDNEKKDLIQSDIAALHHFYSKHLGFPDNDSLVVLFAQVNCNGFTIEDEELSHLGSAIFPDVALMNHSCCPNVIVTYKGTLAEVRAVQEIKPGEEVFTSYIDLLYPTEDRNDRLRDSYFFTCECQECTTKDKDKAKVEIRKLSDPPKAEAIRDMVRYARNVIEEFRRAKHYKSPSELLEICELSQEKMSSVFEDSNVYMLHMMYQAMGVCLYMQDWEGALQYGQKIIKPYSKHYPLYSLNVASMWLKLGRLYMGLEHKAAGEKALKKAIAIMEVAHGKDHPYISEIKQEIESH
T4 sequence (Q96LA8 whole entry): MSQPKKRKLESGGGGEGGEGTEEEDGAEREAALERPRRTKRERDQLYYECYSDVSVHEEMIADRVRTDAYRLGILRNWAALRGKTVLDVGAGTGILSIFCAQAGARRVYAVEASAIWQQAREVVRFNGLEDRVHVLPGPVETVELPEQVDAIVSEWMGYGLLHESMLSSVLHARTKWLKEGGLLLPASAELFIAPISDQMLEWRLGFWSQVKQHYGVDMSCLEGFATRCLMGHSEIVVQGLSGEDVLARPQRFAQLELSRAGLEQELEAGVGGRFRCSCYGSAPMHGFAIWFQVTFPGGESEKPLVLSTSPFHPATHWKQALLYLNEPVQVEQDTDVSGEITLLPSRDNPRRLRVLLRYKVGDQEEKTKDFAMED
T5 sequence (Q15910 2-746 limits assumed): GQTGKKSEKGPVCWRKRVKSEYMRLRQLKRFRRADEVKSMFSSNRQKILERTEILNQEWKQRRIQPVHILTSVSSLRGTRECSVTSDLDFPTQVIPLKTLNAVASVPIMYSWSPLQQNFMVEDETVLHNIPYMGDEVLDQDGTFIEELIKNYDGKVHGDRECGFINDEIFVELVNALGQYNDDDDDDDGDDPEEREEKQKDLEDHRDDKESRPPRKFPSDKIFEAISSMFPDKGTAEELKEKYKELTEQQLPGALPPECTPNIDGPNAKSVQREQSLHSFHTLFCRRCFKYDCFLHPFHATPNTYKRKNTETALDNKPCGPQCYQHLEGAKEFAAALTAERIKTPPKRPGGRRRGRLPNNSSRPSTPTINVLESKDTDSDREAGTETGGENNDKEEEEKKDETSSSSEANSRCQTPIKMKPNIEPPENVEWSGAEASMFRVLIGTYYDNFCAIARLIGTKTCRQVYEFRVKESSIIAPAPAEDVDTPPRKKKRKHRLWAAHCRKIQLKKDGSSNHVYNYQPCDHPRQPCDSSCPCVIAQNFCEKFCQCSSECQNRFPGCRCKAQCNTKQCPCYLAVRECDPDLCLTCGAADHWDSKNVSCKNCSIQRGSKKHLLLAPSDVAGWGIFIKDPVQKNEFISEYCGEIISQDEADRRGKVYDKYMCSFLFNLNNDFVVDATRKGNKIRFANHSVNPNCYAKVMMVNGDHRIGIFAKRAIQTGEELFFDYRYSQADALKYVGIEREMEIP
T5 sequence (O75530 2-441 partner limits assumed): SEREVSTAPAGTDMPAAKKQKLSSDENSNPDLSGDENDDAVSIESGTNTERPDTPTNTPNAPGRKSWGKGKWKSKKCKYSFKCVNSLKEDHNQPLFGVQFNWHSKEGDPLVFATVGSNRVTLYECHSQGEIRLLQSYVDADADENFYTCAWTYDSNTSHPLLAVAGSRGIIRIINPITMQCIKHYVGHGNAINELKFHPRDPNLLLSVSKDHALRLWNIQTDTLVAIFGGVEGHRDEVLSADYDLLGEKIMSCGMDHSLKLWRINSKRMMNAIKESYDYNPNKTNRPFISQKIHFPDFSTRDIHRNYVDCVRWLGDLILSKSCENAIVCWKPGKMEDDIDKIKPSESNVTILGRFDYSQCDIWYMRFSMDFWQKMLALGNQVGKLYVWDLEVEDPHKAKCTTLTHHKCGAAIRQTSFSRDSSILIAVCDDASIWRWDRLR
T5 sequence (Q15022 2-739 partner limits assumed): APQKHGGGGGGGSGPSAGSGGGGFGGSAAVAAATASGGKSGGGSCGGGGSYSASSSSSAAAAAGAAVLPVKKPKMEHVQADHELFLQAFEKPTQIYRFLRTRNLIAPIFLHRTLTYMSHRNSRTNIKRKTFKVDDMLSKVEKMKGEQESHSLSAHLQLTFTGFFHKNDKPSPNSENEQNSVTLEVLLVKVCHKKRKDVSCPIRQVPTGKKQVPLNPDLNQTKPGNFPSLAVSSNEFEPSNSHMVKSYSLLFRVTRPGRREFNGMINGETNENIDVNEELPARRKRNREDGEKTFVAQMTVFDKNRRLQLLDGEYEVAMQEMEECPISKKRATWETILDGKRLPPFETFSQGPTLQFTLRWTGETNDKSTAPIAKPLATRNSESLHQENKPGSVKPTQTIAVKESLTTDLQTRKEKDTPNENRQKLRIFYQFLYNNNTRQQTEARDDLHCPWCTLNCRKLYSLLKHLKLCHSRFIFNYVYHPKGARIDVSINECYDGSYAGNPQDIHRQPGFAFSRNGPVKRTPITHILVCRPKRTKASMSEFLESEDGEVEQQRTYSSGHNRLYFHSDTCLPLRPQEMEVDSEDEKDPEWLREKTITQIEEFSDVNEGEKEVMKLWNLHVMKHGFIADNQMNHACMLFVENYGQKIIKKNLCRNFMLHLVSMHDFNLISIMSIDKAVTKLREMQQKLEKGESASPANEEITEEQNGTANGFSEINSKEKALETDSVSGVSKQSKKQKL
T5 sequence (Q09028 2-425 partner limits assumed): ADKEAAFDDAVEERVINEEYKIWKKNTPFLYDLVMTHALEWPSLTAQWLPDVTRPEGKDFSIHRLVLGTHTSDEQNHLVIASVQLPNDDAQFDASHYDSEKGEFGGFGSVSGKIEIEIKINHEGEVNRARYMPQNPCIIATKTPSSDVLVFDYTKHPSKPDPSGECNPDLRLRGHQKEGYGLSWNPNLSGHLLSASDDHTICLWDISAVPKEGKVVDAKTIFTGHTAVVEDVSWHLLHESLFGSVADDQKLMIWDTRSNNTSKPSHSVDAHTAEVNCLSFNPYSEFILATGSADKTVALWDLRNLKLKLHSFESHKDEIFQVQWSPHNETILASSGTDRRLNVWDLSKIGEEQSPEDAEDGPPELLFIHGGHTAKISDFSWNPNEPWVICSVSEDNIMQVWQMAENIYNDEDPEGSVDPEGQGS
T5 sequence (Q6ZN18 whole entry partner): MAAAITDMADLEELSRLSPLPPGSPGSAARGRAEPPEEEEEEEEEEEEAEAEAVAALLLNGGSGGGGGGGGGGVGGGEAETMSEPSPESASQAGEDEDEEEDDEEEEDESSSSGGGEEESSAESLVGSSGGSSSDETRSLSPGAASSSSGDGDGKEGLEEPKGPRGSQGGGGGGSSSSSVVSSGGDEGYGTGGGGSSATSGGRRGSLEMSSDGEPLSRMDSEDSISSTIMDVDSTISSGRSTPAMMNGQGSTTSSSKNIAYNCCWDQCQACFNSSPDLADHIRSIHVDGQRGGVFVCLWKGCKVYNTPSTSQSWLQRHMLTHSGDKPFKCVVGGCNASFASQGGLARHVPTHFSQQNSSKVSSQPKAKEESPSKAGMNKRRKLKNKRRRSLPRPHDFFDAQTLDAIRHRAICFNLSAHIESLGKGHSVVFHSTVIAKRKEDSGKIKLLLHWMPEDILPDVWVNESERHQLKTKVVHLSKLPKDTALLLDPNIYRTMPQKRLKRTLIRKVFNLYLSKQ

Regarding `CC(C)[C@H](CCCNC(=O)Nc1ccc(C(C)(C)C)cc1)N[C@H]1C[C@@H](n2cnc3c(N)ncnc32)[C@H](O)[C@@H]1O` [Dia2, 1-((S)-4-(((1S,2R,3S,4R)-4-(6-amino-9H-purin-9-yl)-2,3-dihydroxycyclopentyl)amino)-5-methylhexyl)-3-(4-(tert-butyl)phenyl)urea], the remaining activity at 10 µM amounted to 92 ± 1% at PRMT4; 92 ± 1% on SMYD2; 97 ± 1% on G9a; 95 ± 1% at PRMT6; 86 ± 1% at EZH2 Complex. Further, the EC50 in the data set with NOMO-1 cells (MLL-AF9) turned out to be 660 ± 20 nM; with KOPN8 cells (MLL-ENL), 63 ± 2 nM. In “Microsomal stability” (mouse liver microsomes, versus EPZ-4777 and EPZ-5676), this compound displayed a half-life increase of 2 fold. The microsomal CLint in the data set “Microsomal stability” (mouse liver microsomes, read-out: intrinsic clearance) stood at 121 µL/min/mg. The half-life – broadly, the time needed for the level to fall by half in the phase considered – in “Microsomal stability” (mouse, liver microsomes) was found to be 11.5 min.
